“And” between values parts separate entries of the source, which are not always exact repeats. Equal entries are not always repeated. The source made the active and inactive calls.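 How the source made its calls: active means compounds giving half or more protection of infected cells from virus-caused growth loss, again on retest; inactive means the rest.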 Where a SMILES comes first, the peptide text is derived from it. [ ]: non-standard residue; d: D form. The star is where a group is joined. Cbz = O=C(OCc1ccccc1)*; Boc = CC(C)(C)OC(=O)*; OBn = c1ccc(CO*)cc1; Ava = NCCCCC(=O)O; Mpa = O=C(O)CCS
System: CEM cells HIV-1 protection, formazan growth assay
Assay: NCI AIDS Antiviral Assay
Settings: for IC50: measured here: growth of uninfected CEM cells
Outline: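 Protection of CEM cells against HIV-1 measured as cell growth via soluble formazan read-out, with five concentrations tested on both infected and uninfected cells; failure to protect may reflect toxicity.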

| Structure (SMILES) | EC50 [µM] | IC50 | outcome |
| --- | --- | --- | --- |
| CCOC(=O)C(C)(C)Oc1ccc(/C=C/C(=O)c2ccc(Cl)cc2)cc1 | > 10 | > 10 µM | – |
| O=S1(=O)c2ccccc2N(c2ccccc2)c2nnnn21 | > 79.4 | 33.1 µM | – |
| CC1ON2CCCC2[C@H]1C(=O)N1C2CC3CCC2(CS1(=O)=O)C3(C)C (some centres not stated) | > 200 | > 200 µM | – |
| CC(=O)C(C(=O)C(C)(C)C)C(=O)C(C)(C)C | > 200 | > 200 µM | – |
| C[N+]1(CCCl)CCc2cccc([N+](=O)[O-])c2C1 (configuration not stated) | > 200 | 97.7 µM | – |
| NC(=O)N1N=C2c3ccccc3CC[C@@H]2C1c1ccccc1 (some centres not stated) | – | – | inactive |
| CCc1cccc(C(C)CC)c1NC(=O)C(=O)C(CC(=O)Nc1ccc(Cl)c(Cl)c1)C(=O)OC (configuration not stated) | > 186 | > 186 µM | – |
| [N-]=[N+]=NC1(c2ccccc2)C(=O)c2cccc3c4ccccc4n(c23)C1=O (configuration not stated) | > 200 | > 200 µM | – |
| O=c1c(O)c(-c2ccccc2)n(O)c2ccc(Cl)cc12 | > 18.2 | > 18.2 µM | – |
| C/C=C/CCC1CCCCN(C(=O)OC(C)(C)C)C1OCC (configuration not stated) | > 60.3 | > 60.3 µM | – |
| Cc1ccc(/C=C/CO)cc1 | – | – | inactive |
| CC1=CC2C(=O)N(c3ccccc3)C(=O)C2CC1n1[nH]c(=O)n(Cc2ccccc2)c1=O (configuration not stated) | > 302 | > 302 µM | – |
| Cn1c(-c2ccc(-c3cc(-c4cccs4)c(-c4cccs4)n3C)cc2)cc(-c2cccs2)c1-c1cccs1 | > 200 | > 200 µM | – |
| O/N=C1/C(=C/c2ccc(Br)cc2)CCCC1C(NO)c1ccc(Br)cc1 (configuration not stated) | > 20.9 | > 20.9 µM | – |
| Cn1cnc([N+](=O)[O-])c1Sc1nnnn1-c1ccccc1 | > 224 | 10.7 µM | – |
| CCOC(=O)CC1c2ccc(O)cc2OC(=O)C1c1ccc([N+](=O)[O-])cc1 (configuration not stated) | > 200 | 31.6 µM | – |
| C=C1CCC(CC[C@@H]2CC[C@]3(OC2)O[C@@]2(O)CC[C@]3(C)OC2(C)C)C(C)(C)[C@H]1C/C=C1/C(=O)OC[C@@H]1O (some centres not stated) | – | – | inactive |
| c1ccc(N=c2nc(N3CCOCC3)ss2)cc1 | – | – | inactive |
| NCc1ccc(S(N)(=O)=O)cc1 | > 200 | > 200 µM | – |
| Cc1cc(Cl)cc2c1NC(=O)C2(O)C(C)C(=O)c1ccc(Cl)cc1 (configuration not stated) | > 186 | 123 µM | – |
| C/C=C/CC1(C(C)C)C(=O)NC(=S)NC1=O | > 200 | > 200 µM | – |
| O=C(O)CCC(=O)c1ccc2c(c1)C(C(=O)O)CC2 (configuration not stated) | > 200 | > 200 µM | – |

| Structure (SMILES) | EC50 [µM] | IC50 | outcome |
| --- | --- | --- | --- |
| CC(NC(=O)CCS)C(=O)NC(C)C(=O)NC(Cc1c[nH]c2ccccc12)C(=O)NC(Cc1c[nH]cn1)C(=O)NC(CO)C(=O)NC(Cc1c[nH]c2ccccc12)C(=O)NCCCCC(=O)NC(C)C(=O)NC(CCC(N)=O)C(=O)NC(CCCCN)C(=O)NC(C)C(=O)NC(CCCNC(=N)N)C(=O)NC(CCCCN)C(N)=O (configuration not stated) ([Mpa]AAWHSW[Ava]AQKARK-NH2; configuration not given here) | > 20 | > 20 µM | – |
| CCCC(=O)Nc1ccc(C2=NNC(=O)C3CC23)cc1 (configuration not stated) | > 200 | > 200 µM | – |
| [C-]#[O+].[C-]#[O+].[C-]#[O+].[Mo].c1ccc(P(CC[PH+](CC[PH+](CC[PH+](c2ccccc2)c2ccccc2)c2ccccc2)c2ccccc2)c2ccccc2)cc1 (configuration not stated) | > 6.17 | > 6.17 µM | – |
| Cn1c2c(c(=O)n(C)c1=O)CN(Cc1ccccc1)CN2 | > 200 | > 200 µM | – |
| Cc1cc(OC(F)(F)c2nc3ccccc3o2)cc(C)c1C | 25.1 | 26.9 µM | – |
| O=C(CC1=Nc2nnc(CCCCCCCc3nnc4n3C(=O)C(CC(=O)c3ccccc3)=N4)n2C1=O)c1ccccc1 | > 1.82 | > 1.82 µM | – |
| O=c1nc(-c2ccccc2)cc(CC(O)c2ccc(Cl)c(Cl)c2)[nH]1 (configuration not stated) | > 20 | > 20 µM | – |
| O=C1NP23(OCCO2)Oc2ccccc2C3(C(F)(F)F)O1 (configuration not stated) | > 776 | 389 µM | – |
| Cc1cc(NS(=O)(=O)c2ccc(Nc3c4ccccc4nc4c(C(N)=O)cccc34)cc2)no1 | > 200 | 10.7 µM | – |
| Cc1ccccc1N=Nc1ccc(N/N=C2/CCCNC2=O)c(C)c1 | > 200 | 182 µM | – |
| CCCCCCCCCCCCCCCCCCOCC(C[N+]1(C)CCC(O)CC1)OCC (configuration not stated) | > 0.912 | > 0.912 µM | – |
| CC(C)NC(=O)OCc1nnn2c1CCC2 | – | – | inactive |
| Cc1ccc(/C=C2/Sc3scc(-c4ccccc4)[n+]3C2=O)cc1 | > 200 | 47.9 µM | – |
| OC1=CN=COc2ccccc21 | > 813 | 479 µM | – |
| O=[N+]([O-])C1(C[Se]c2cccc(C(F)(F)F)c2)CCCCC1 | – | – | inactive |
| CC(=O)Oc1ccccc1/C=C/C(=O)/C=C/c1ccccc1OC(C)=O | > 20 | 2.14 µM | – |
| O=C(C=Nc1ccccc1C(=O)[O-])c1cccs1.O=C(C=Nc1ccccc1C(=O)[O-])c1cccs1.[Zn+2] | – | – | inactive |
| O=C1CCN2CCCC1C2 (configuration not stated) | > 1410 | 1290 µM | – |
| Nc1ncnc2c1ncn2C1CC(CO)CO1 (configuration not stated) | 209 | 214 µM | – |
| Nc1nc2c(ncn2CC2OCC(CO)O2)c(=O)[nH]1 (configuration not stated) | > 2950 | 1820 µM and 275 µM | – |
| CC1SC(=S)N(c2ccc(Cl)cc2)C1=O (configuration not stated) | > 138 | 67.6 µM | – |
| Cc1ccc(S(=O)(=O)n2c3ccc(Br)cc3c3nc4ccccc4nc32)cc1 | > 100 | > 100 µM | – |

| Structure (SMILES) | EC50 [µM] | IC50 | outcome |
| --- | --- | --- | --- |
| O=C1C(c2ccccc2)CS(=O)(=O)CC1c1ccccc1 (configuration not stated) | > 120 | 36.3 µM | – |
| O=c1ccc2cc(O)ccc2o1 | > 200 | > 200 µM | – |
| Cc1ccsc1/C=N/NC1=NCCN1 | > 200 | > 100 µM | – |
| O=[N+]([O-])c1cccc(/C=N/NC2=CS(=O)(=O)C=C2)c1 | > 67.6 | > 67.6 µM | – |
| O=C1CC(c2ccoc2)NC(=O)N1CCCl (configuration not stated) | > 200 | > 200 µM | – |
| Nc1ccc(C2SCC(=O)N2NS(=O)(=O)c2cccc(C(=O)O)c2)cc1 (configuration not stated) | 36.3 | 132 µM | – |
| c1ccc2c(c1)nc(NC1CCCC1)c1[nH]c(C3CCCC3)nc12 | > 200 | 25.1 µM | – |
| COc1cc(NC=O)c2c(c1)SCCC(=O)N2 | > 200 | > 200 µM | – |
| CN1C(=O)C(O)Nc2ncncc21 (configuration not stated) | > 200 | 32.4 µM | – |
| Cc1cc([N+](=O)[O-])ccc1NC(=O)C(=O)C(C(=O)c1ccccc1-c1ccccc1)C1OC(=O)c2ccccc21 (configuration not stated) | > 178 | 28.2 µM | – |
| CC(C)c1ccc2nc3ccc(C(=O)NCCN(C)C)cn3c(=O)c2c1 | > 200 | 12.6 µM | – |
| COCn1c(C(=O)c2ccccc2)c(C)c(=O)[nH]c1=O | 70.8 | > 200 µM | – |
| Nc1ncnc2c1ncn2C1C=CC(CP(=O)(O)O)C1 (configuration not stated) | > 200 | > 200 µM | – |
| Cc1[nH]nc2c(N(C)C)ncnc12 | > 200 | 170 µM | – |
| O=[N+]([O-])c1ccc(O)c(/C=N\NC(=S)Nc2ccc(F)cc2)c1 | > 77.6 | > 77.6 µM | – |
| N#CC(C#N)=Cc1cccc(C#N)c1 | > 141 | 2.45 µM | – |
| C#CCNC(=O)NC(CCCCNC(=O)OCc1ccccc1)C(=O)OCc1ccccc1 (configuration not stated) | > 57.5 | 42.7 µM | – |
| CC(=O)/C(=C/c1ccc(N(C)C)cc1)C(=O)c1ccccc1 | > 6.76 | > 6.76 µM | – |
| C=C1C(=O)O[C@H]2C1C[C@@H](O)[C@@]1(C)OC1CC[C@@]1(C)O[C@H]21 (some centres not stated) | > 200 | 4.47 µM | – |
| COc1cc2c(c(C)c1O)[C@H]1Cc3ccccc3[C@H]1O2 | > 7.41 | > 7.41 µM | – |
| O=C1CNc2cc(N3CCCCC3)ccc2N1 | > 200 | 66.1 µM | – |
| CCCCCCCCCCCCC(=O)NCC(=O)NC(Cc1ccccc1)C(=O)Oc1ccc([N+](=O)[O-])cc1 (configuration not stated) | > 200 | 5.25 µM | – |

| Structure (SMILES) | EC50 [µM] | IC50 | outcome |
| --- | --- | --- | --- |
| CN1C(=O)/C(=C2\SC(=O)N(CNc3ccc(Br)cc3)C2=O)c2ccccc21 | > 200 | 15.5 µM | – |
| Cc1cc[n+]2c(c1)-c1cc(C)cc[n+]1CC2 | > 200 | 162 µM | – |
| O=C(NNS(=O)(=O)c1ccccc1)c1csc(NC(=S)NC2CCCCC2)n1 | > 72.4 | 28.8 µM | – |
| COc1c(OCc2ccccc2)c(OCc2ccccc2)cc(CO)c1-c1c(CO)cc(OCc2ccccc2)c(OCc2ccccc2)c1OC | > 2.88 | > 2.88 µM | – |
| CCOC(=O)c1ccc(CS(=O)(=O)c2ccc(Cl)cc2)c([N+](=O)[O-])c1 | > 49 | > 49 µM | – |
| CC1=Nc2ccccc2NC(=O)C1 | > 200 | > 200 µM | – |
| C/C(=N/NC(=O)CC(=O)N(C(=O)c1ccccc1Cl)c1ccc(C)cc1)c1cc2ccccc2oc1=O | > 10 | > 10 µM | – |
| CCNC(=S)Nc1c(C#N)c2n(c1C(=O)OCC)CCCCC2 | > 200 | > 200 µM | – |
| COC(=O)c1cc(C(c2cc(C(=O)OC)c(O)c(Br)c2C)C(Cl)Cl)c(C)c(Br)c1O | > 200 | 66.1 µM | – |
| CCOC(=O)NC(=O)c1cn(CCOC(=O)NCCCCCCNC(=O)OCCn2cc(C(=O)NC(=O)OCC)c(=O)[nH]c2=O)c(=O)[nH]c1=O | – | – | inactive |
| CCSCCCSCCSCC | > 158 | > 158 µM | – |
| O=C1CSC(c2c[nH]c3ccccc23)N1c1cccc(Cl)c1 (configuration not stated) | > 21.9 | > 21.9 µM | – |
| N#Cc1c(-c2ccc(NCc3nc4ccccc4[nH]3)cc2)cc(-c2ccco2)[nH]c1=O | > 200 | 27.5 µM | – |
| O=C1C(=O)c2ccccc2C(O)=C1C(C1=C(O)c2ccccc2C(=O)C1=O)c1ccc(Cl)cc1Cl | > 200 | 16.2 µM | – |
| Nc1ccc2c(c1)CC1c3ccccc3C(C2)c2ccccc21 | – | – | inactive |
| CN=C1Nc2ccccc2C(=O)N2CSCC12 (configuration not stated) | > 200 | > 200 µM | – |
| Cn1c(=O)cc(CC(=O)O)c2ccccc21 | > 200 | > 200 µM | – |
| OC1c2ccccc2C2(O)C1C(c1ccccc1)C(c1ccccc1)C2(O)c1ccccc1 (configuration not stated) | – | – | inactive |
| COC(=O)C(CCCCNC(=O)OCc1ccccc1)NC(=O)C(CCC(=O)OCc1ccccc1)NC(=O)OC(C)(C)C (configuration not stated) (Boc-Glu(OBn)-Lys(Cbz)-OMe; configuration not given here) | > 200 | > 200 µM | – |
| COCc1cc2c(cc1/C=C/[N+](=O)[O-])OCO2 | > 200 | 2.95 µM | – |
